Results from patent US7964734B2, “Raloxifene acid addition salts and/or solvates thereof, improved method for purification of said raloxifene acid addition salts and/or solvates thereof and pharmaceutical compositions comprising these” (A/S Gea Farmaceutisk Fabrik, priority 2002, dated 2011).
Where a name gives a salt, the structure may show the parent alone. Read-outs that look alike come from different tables or passages of the source.

What was measured:
[1] = Intrinsic dissolution rate, Rotation Disc Method (USP 1087); type: physicochemical; settings: 37° C., 100 rpm, average of two measurements
Experimental: The raloxifene hydrochloride salt used in these experiments was purchased from Otto Bradt GmbH (batch MA/RF/12003) while the rest of the raloxifene acid additions salts were prepared according to Example 1-6.
The experiments were carried out following the procedure of Rotation Disc Method (USP 1087) using Vankel VK 7000 Intrinsic dissolution apparatus (Vankel Technology group, W. Vankelion) equipped with Vankel 12-4120 intrinsic disc having a surface area of 0.5 cm^2, Vankel 12-4130 surface plate, Vankel 12-4140 punch, and Vankel shaft and holder (surface area: 0.5 cm^2) and operating at a rotation rate of 100 rpm.
The buffer solution is handled in a 750 ml measuring bottle, degassed and transferred into a dissolution vessel. Approximately 100 mg compound is weighed out and transferred into an intrinsic disc. Said disc is then assembled, and to said disc a disc is applied in the IR-press at a pressure of 5 kN for 1 minute. The disc is started and samples of 10 ml are collected by use of “pressure vials” after 1, 10, 20, 30, 45, and 60 minutes. The change of volume is corrected using the equation: Q=Vs×(sumCn−1)+Cn×Vt wherein Q designates the volume at the time t, C designates the concentration of the sample n, Vt designates the volume of the liquid collected at the time t, and Vs designates the volume of the sample collected. The sample is measured against a standard using HPLC. In these measurements a 5 microns 3.9×150 mm column filled with symmetrical material is employed and as eluant a 20 mM phosphate buffer KH2PO4, pH 6.8 mixed with acetonitrile and tetrahydrofuran in the ratio 55:35:10 is used.
The standard is prepared by use of following procedure: 20 mg of salt is dissolved initially in 100 ml of MeOH and then 1 ml of this solution is transferred to a 50 ml flask with water and then 2 ml to a 20 ml flask of buffer in question.
pH 1: a 0.1 M HCl is used.
0.025 M Phosphate buffer solution pH 2.0: 3.40 g of potassium dihydrogen phosphate is dissolved in 900 ml of water. Then pH is adjusted to 2.0 with phosphoric acid and diluted to 1000.0 ml with water. Exactly 5.85 g of NaCl is added to 1 L of buffer.
0.025 M Phosphate buffer solution pH 3.0: 3.40 g of potassium dihydrogen phosphate is dissolved in 900 ml of water. Then pH is adjusted to 3.0 with phosphoric acid and diluted to 1000.0 ml with water. Exactly 5.85 g of NaCl is added to 1 L of buffer.
0.022 M Phosphate buffer solution pH 4.0: 3.0 g of potassium dihydrogen phosphate is dissolved in 800 ml of water. Then pH is adjusted with 1 M potassium hydroxide and phosphoric acid and diluted to 1000.0 ml with water. Exactly 5.85 g of NaCl is added to 1 L of buffer. 0.02 M Phosphate buffer solution pH 5.0: 2.72 g of potassium dihydrogen phosphate is dissolved in 800 ml of water. Then pH is adjusted with 1 M potassium hydroxide and diluted to 1000.0 ml with water. Exactly 5.85 g of NaCl is added to 1 L of buffer.

[2] = cited from earlier work
[3] = Solubility in aqueous solvents/media (general statement); type: physicochemical; settings: versus aqueous media
[4] = Dissolution test in dilute acid, evaluated visually; type: physicochemical
Experimental: 60 mg raloxifene HCl was transferred to a dissolution vessel containing one liter 0.1 M HCl. The mixture was vigorously mixed and left at room temperature over night. Subsequently the dissolution was evaluated visually.
A similar dissolution test was performed using 60 mg raloxifene hydrochloride in 0.1 M phosphoric acid.

[5] = Hydrochloride, pH 1 (0.1 M HCl)
[6] = Phosphate, pH 2, chloride 0.1 M
[7] = Phosphate, pH 3, chloride 0.1 M
[8] = Phosphate, pH 4, chloride 0.1 M
[9] = Phosphate, pH 5, chloride 0.1 M

Row | intrinsic dissolution rate (IDR) [1, 5] [μmol/min * cm^2] | intrinsic dissolution rate (IDR) [1, 6] [μmol/min * cm^2] | intrinsic dissolution rate (IDR) [1, 7] [μmol/min * cm^2] | intrinsic dissolution rate (IDR) [1, 8] [μmol/min * cm^2] | intrinsic dissolution rate (IDR) [1, 9] [μmol/min * cm^2] | solubility in aqueous media comprising hydrochloric acid [3] | Molecule | solubility in aqueous solvents ([2]; hydrochloride) | dissolution evaluated visually ([4]; 60 mg in 0.1 M phosphoric acid, similar test) | dissolution evaluated visually ([4]; 60 mg in one liter 0.1 M HCl, vigorously mixed, room temperature over night) | solubility in aqueous solvents [2]
1 | 0.0022 | 0.0026 | 0.0022 | 0.0022 | 0.0044 | decreases significant | O=C(c1ccc(OCCN2CCCCC2)cc1)c1c(-c2ccc(O)cc2)sc2cc(O)ccc12 [Hydrochloride, raloxifene hydrochloride, reference compound] | fairly soluble | all raloxifene hydrochloride seemed to be dissolved | Very little of the initial added amount of raloxifene hydrochloride was dissolved | 
2 | 0.0475 | 0.0453 | 0.0403 | 0.0190 | 0.0091 |  | C[C@H](O)C(=O)O.O=C(c1ccc(OCCN2CCCCC2)cc1)c1c(-c2ccc(O)cc2)sc2cc(O)ccc12 [L-lactate hemihydrate] |  |  |  | 
3 | 0.0229 | 0.0173 | 0.0148 | 0.0136 | 0.0112 |  | O=C(O)CC(=O)O.O=C(c1ccc(OCCN2CCCCC2)cc1)c1c(-c2ccc(O)cc2)sc2cc(O)ccc12 [Malonate] |  |  |  | 
4 | 0.0550 | 0.0228 | 0.0271 | 0.0127 | 0.0119 |  | [6-hydroxy-2-(4-hydroxyphenyl)benzo[b]thien-3-yl][4-[2-(1-piperidinyl)ethoxy]phenyl-, succinate |  |  |  | 

Second part, the molecule before the results:

Row | Molecule | intrinsic dissolution rate (IDR) [1, 5] [μmol/min * cm^2] | intrinsic dissolution rate (IDR) [1, 6] [μmol/min * cm^2] | intrinsic dissolution rate (IDR) [1, 7] [μmol/min * cm^2] | intrinsic dissolution rate (IDR) [1, 8] [μmol/min * cm^2] | intrinsic dissolution rate (IDR) [1, 9] [μmol/min * cm^2] | solubility in aqueous media comprising hydrochloric acid [3] | solubility in aqueous solvents ([2]; hydrochloride) | dissolution evaluated visually ([4]; 60 mg in 0.1 M phosphoric acid, similar test) | dissolution evaluated visually ([4]; 60 mg in one liter 0.1 M HCl, vigorously mixed, room temperature over night) | solubility in aqueous solvents [2]
5 | CC(O)C(=O)O.O=C(c1ccc(OCCN2CCCCC2)cc1)c1c(-c2ccc(O)cc2)sc2cc(O)ccc12 [DL-lactate hemihydrate, [6-hydroxy-2-(4-hydroxyphenyl)benzo[b]thien-3-yl][4-[2-(1-piperidinyl)ethoxy]phenyl-, DL-lactate] | 0.0056 | 0.0119 | 0.0062 | 0.0212 | 0.0215 |  |  |  |  | 
6 | C[C@H](O)C(=O)O.O=C(c1ccc(OCCN2CCCCC2)cc1)c1c(-c2ccc(O)cc2)sc2cc(O)ccc12 [L-Lactate ¼-hydrate] | 0.0035 | 0.0028 | 0.0067 | 0.0324 | 0.0247 |  |  |  |  | 
7 | O=C(c1ccc(OCCN2CCCCC2)cc1)c1c(-c2ccc(O)cc2)sc2cc(O)ccc12 [raloxifene as free base, 6-hydroxy-2-(4-hydrophenyl)-3-[4-(2-piperidinoethoxy)-benzoyl]benzo-[b]-thiophene] |  |  |  |  |  |  |  |  |  | only sparingly soluble
